Assays:
LNCaP cells [1] = assay: Growth inhibition, CellTiter-Glo, 4 days; type: cell-based, human; conditions: 5, 1, and 0.1 μM
PC-3 cells = assay: Growth inhibition, CellTiter-Glo, 4 days; type: cell-based, human; conditions: 5, 1, and 0.1 μM
22Rv1 cells = assay: On-target activity assessment in 22Rv1 cells with BRD7 knockdown; type: cell-based, human; conditions: 2.5 or 5 μM, 4 days, two shRNA constructs
BRD7 BD = target: T1, BRD7 BD (Homo sapiens, UniProt Q9NPI1); assay: NanoBRET target engagement in HEK293T cells
T1 sequence (Q9NPI1 131-235 limits assumed): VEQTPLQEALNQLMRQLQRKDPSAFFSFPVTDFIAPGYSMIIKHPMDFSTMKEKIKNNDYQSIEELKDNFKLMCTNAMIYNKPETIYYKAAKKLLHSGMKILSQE

LNCaP cells [2] = assay: RNA-Seq gene expression in LNCaP cells; type: cell-based, human; conditions: 1 μM, 72 h
BRD9 BD = target: T2, BRD9 BD (Homo sapiens, UniProt Q9H8M2); assay: Microscale thermophoresis; type: binding; conditions: 50 nM His-tagged BRD9, ligand from 50 μM
T2 sequence (Q9H8M2 136-240 limits assumed): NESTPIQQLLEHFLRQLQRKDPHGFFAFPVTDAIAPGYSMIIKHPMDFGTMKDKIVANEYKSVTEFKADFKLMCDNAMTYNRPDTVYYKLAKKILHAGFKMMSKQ

His-tagged BRD7 BD = target: T3, His-tagged BRD7 BD (Homo sapiens, UniProt Q9NPI1); assay: Thermal shift assay; type: binding; conditions: compounds at 25, 10, or 1 μM
T3 sequence (Q9NPI1 131-235 limits assumed): T1 sequence (Q9NPI1 131-235 limits assumed)

BRPF1B BD [3] = target: T4, BRPF1B BD (Homo sapiens, UniProt P55201); assay: BROMOscan BromoMAX panel; type: binding; conditions: 2 μM
T4 sequence (P55201 628-732 limits assumed): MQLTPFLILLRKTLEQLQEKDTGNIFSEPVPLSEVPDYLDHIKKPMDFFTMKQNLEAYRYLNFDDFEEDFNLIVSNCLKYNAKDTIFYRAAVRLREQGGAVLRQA

40 distinct BDs = assay: BROMOscan BromoMAX panel; type: binding, human; conditions: for selectivity in BROMOscan panel: 2 μM concentration; for binding to other BDs in BROMOscan: 2 μM, BDs other than BRD7/BRD9
BRPF1B BD [4] = target: T4, BRPF1B BD; assay: NanoBRET target engagement in HEK293T cells; type: cell-based
[5] = tested on: LNCaP, C4–2 and PC3 cells; assay: Dose curves over 7 days of treatment, CellTiter-Glo; type: cell-based, human
His-tagged BRD9 BD = target: T5, His-tagged BRD9 BD (Homo sapiens, UniProt Q9H8M2); assay: Thermal shift assay; type: binding; conditions: compounds at 25, 10, or 1 μM
T5 sequence (Q9H8M2 136-240 limits assumed): T2 sequence (Q9H8M2 136-240 limits assumed)

BRD9 = target: T6, BRD9 (Homo sapiens, UniProt Q9H8M2); assay: Cell fractionation assay, BRD9 bound to chromatin; type: cell-based; conditions: HEK293T, 10 μM, 24 h
T6 sequence (Q9H8M2 1-597): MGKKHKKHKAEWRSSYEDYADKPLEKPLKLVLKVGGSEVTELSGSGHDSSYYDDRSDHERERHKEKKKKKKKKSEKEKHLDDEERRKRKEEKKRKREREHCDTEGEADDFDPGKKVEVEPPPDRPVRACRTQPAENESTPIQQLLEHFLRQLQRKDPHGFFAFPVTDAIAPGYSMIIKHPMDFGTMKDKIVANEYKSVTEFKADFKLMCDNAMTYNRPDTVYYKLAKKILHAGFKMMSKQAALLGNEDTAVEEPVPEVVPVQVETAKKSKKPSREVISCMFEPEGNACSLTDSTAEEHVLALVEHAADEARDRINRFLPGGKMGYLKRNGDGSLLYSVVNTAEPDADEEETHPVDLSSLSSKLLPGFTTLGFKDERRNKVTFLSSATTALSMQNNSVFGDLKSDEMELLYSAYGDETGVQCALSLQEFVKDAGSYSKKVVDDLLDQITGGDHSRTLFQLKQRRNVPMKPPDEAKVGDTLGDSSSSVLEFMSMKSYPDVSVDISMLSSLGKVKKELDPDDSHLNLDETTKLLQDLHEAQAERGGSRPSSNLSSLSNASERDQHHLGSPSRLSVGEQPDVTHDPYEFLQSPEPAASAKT

His-tagged BRPF1B BD = target: T7, His-tagged BRPF1B BD (Homo sapiens, UniProt P55201); assay: Thermal shift assay; type: binding; conditions: compounds at 25, 10, or 1 μM
T7 sequence (P55201 628-732 limits assumed): T4 sequence (P55201 628-732 limits assumed)

For `COc1ccccc1C(=O)Nc1cc2c(cc1N1CCCCC1)n(C)c(=O)n2C` [GSK-5959, reference compound], the LNCaP cell growth (LNCaP cells [1]) was “little to no effect” and the PC-3 cell growth (PC-3 cells) was “little to no effect”.

With `COc1ccc(-c2ccc3c(C)cc(=O)n(C)c3c2)c(OC)n1` [2–77, 7-(2,6-Dimethoxypyridin-3-yl)-1,4-dimethylquinolin-2(1H)-one] the “viability of 22Rv1 cells with BRD7 knockdown” value (22Rv1 cells) was “less affected”, the IC50 (BRD7 BD) was 1200 nM and the “GSEA Hallmark_Androgen_Response enrichment” value (LNCaP cells [2]) was “significant and strong negative enrichment”. The “binding to BRD9 (MST)” value (BRD9 BD) was “no binding”, the “stabilization / Tm increase of BRD7 BD (TSA)” value (His-tagged BRD7 BD) was “increased the Tm” and the “binding to BRPF1B BD in BROMOscan” value (BRPF1B BD [3]) was “off-target binding”. The LNCaP cell growth (LNCaP cells [1]) was “inhibited the cell growth”, the PC-3 cell growth (PC-3 cells) was “active in PC-3 only at the highest concentration” and the “selectivity in BROMOscan panel” value (40 distinct BDs) was “showed selectivity for BRD7 over BRD9”. For the same compound, the IC50 (BRPF1B BD [4]) was > 10 µM and the “sensitivity of LNCaP and C4–2 cells relative to PC3 cells” value [5] was 3−6 times.

With `COc1ccc(-c2cn(C)c(=O)c3ccccc23)c(OC)n1` [2–88, 4-(2,6-Dimethoxypyridin-3-yl)-2-methylisoquinolin-1(2H)-one] the “stabilization / Tm increase of BRD7 BD (TSA)” value (His-tagged BRD7 BD) was “stabilized only BRD9 BD” and the “stabilization / Tm increase of BRD9 BD (TSA)” value (His-tagged BRD9 BD) was “stabilized only BRD9 BD”.

With `COc1cc(-c2cn(C)c(=O)c3cnccc23)cc(OC)c1CN(C)C` [BI7273, reference compound] the “stabilization / Tm increase of BRD7 BD (TSA)” value (His-tagged BRD7 BD) was “binding and stabilization”, the LNCaP cell growth (LNCaP cells [1]) was “little to no effect” and the PC-3 cell growth (PC-3 cells) was “little to no effect”.

`Cc1cc(C)cc(-c2cn(C)c(=O)c3ccccc23)c1` [1–38, 4-(3,5-Dimethylphenyl)-2-methylisoquinolin-1(2H)-one] was tested, and the “stabilization / Tm increase of BRD7 BD (TSA)” value (His-tagged BRD7 BD) was “stabilized and increased the Tm”, the “stabilization / Tm increase of BRD9 BD (TSA)” value (His-tagged BRD9 BD) was “stabilized and increased the Tm” and the “binding to other BDs in BROMOscan” value (40 distinct BDs) was “no binding to other BDs”.

For `CCn1cc(-c2cccc(C(F)(F)F)c2)c2sc(C(=N)NC3CCS(=O)(=O)CC3)cc2c1=O` [I-BRD9], the “BRD9 bound to chromatin after treatment” value (BRD9) was “significantly reduced BRD9 from chromatin”.

For `COc1ccc2ccccc2c1-c1ccc2c(C)cc(=O)n(C)c2c1` [2–81, 7-(2-Methoxynaphthalen-1-yl)-1,4-dimethylquinolin-2(1H)-one], the “binding to other BDs in BROMOscan” value (40 distinct BDs) was “no binding to other BDs”.

`COc1ccc(-c2ccc3c(C)cc(=O)n(C)c3c2)c(C)n1` [1–78, 7-(6-Methoxy-2-methylpyridin-3-yl)-1,4-dimethylquinolin-2(1H)-one] was tested, and the “viability of 22Rv1 cells with BRD7 knockdown” value (22Rv1 cells) was “not significantly affected”, the IC50 (BRD7 BD) was 800 nM and the “binding to BRD9 (MST)” value (BRD9 BD) was “no binding”. The “stabilization / Tm increase of BRD7 BD (TSA)” value (His-tagged BRD7 BD) was “increased the Tm”, the “binding to BRPF1B BD in BROMOscan” value (BRPF1B BD [3]) was “off-target binding” and the LNCaP cell growth (LNCaP cells [1]) was “inhibited the cell growth”. The “stabilization of BRPF1B BD (TSA)” value (His-tagged BRPF1B BD) was “modest stabilization of BRPF1B at the highest concentration (25 μM)”, the PC-3 cell growth (PC-3 cells) was “active in PC-3 only at the highest concentration” and the “selectivity in BROMOscan panel” value (40 distinct BDs) was “showed selectivity for BRD7 over BRD9”. The “sensitivity of LNCaP and C4–2 cells relative to PC3 cells” value [5] was 3−6 times.

Source: paper PMC10641717 (Journal of medicinal chemistry, 2023)
